# Data: patent publication EP2790511B1 (Merck Sharp & Dohme Corp., priority 2011, dated 2013)
# pIC50: −log10 of the molar value.
# Molecular target: T1, hROMK (hKir1.1) (Homo sapiens, UniProt P48048)
# T1 construct: expressed in transfected cells
# T1 sequence (P48048 1-391): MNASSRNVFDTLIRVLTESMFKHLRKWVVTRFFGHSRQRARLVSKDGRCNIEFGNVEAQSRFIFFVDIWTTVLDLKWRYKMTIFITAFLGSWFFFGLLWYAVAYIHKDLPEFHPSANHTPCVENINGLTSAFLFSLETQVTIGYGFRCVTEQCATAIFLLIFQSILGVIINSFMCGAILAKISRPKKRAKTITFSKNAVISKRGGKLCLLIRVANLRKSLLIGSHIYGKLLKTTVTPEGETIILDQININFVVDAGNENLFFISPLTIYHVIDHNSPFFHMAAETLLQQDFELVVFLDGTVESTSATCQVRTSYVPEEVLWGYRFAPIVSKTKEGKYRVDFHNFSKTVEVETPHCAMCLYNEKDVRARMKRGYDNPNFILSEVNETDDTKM
# Assay: Thallium Flux Assay
# Assay type: cell-based
# Conditions: HEK293 cells stably expressing hROMK (hKir1.1), FLIPR-Tetra; read-out: Thallium Flux IC50
# Experimental: Cell Culture Conditions- HEK293 cells stably expressing hROMK (hKir1.1) were grown at 37°C in a 10%CO2 humidified incubator in complete growth media: Dulbecco's Modified Eagle Medium supplemented with non-essential amino acids, Penicillin/Streptomycin/Glutamine, G418 and FBS. At >80% confluency, aspirate the media from the flask and rinse with 10 mL Calcium/Magnesium-free PBS. […] To dislodge the cell, gently bang the side of the flask with your hand. Triturate the cells completely and then transfer the cells to 25 mL complete media. Centrifuge at 1,500 rpm for 6 min followed by resuspension in complete growth media and determine cell concentration. […] Under ideal growth conditions and appropriate tissue culture practices, this cell line is stable for 40-45 passages.
# • FluxOR™ Reagent (Component A) • FluxOR™ Assay Buffer (Component B) - 10X Concentrate • PowerLoad™ Concentrate (Component C) - 100X Concentrate • Probenecid (Component D) - Lyophilized sample is kept at -20°C. Water soluble, 100X after solubilization in 1 mL water. […] Store at 4°C. • Thallium sulfate (Tl2SO4) Concentrate (Component G) - 50 mM in water. Store at 4°C • DMSO (dimethyl sulfoxide, Component H) - 1 mL (100%)
# • 1000X FluxOR™ Reagent: Reconstitute a vial of component A in 100 µl DMSO; Mix well; Store 10 µl aliquots at -20°C • 1X FluxOR™ Assay Buffer: Dilute Component B 10-fold with water; Adjust pH to 7.4 with Hepes/NaOH; Filter and store at 4°C • Probenecid/Assay Buffer: 100 mL of 1X FluxOR™ Assay Buffer; 1 mL of reconstituted component D; Store at 4°C • Loading Buffer (per microplate): 10 µl 1000X FluxOR™ Reagent; 100 µl component C; 10 mL Probenecid/Assay Buffer • Compound Buffer (per microplate): 20 mL Probenecid/Assay Buffer; 0.3 mM ouabain (10 mM ouabain in water can be stored in amber bottle/aluminum foil at room temperature); Test compound • 1X FluxOR™Chloride-Free Buffer: Prepare 1X working solution in water. Can be stored at room temperature • Stimulant Buffer (prepared at 5X final concentration in 1X FluxOR™Chloride-Free Buffer): 7.5 mM Thallium sulfate and 0.75 mM Potassium sulfate (to give a final assay concentration of 3 mM Thallium/ 0.3 mM Potassium). Store at 4°C when not in use. If kept sterile, this solution is good for months.
# Assay protocol- The ROMK channel functional thallium flux assay is performed in 384 wells, using the FLIPR-Tetra instrument. HEK-hKir1.1 cells are seeded in Poly-D-Lysine microplates and kept in a 37°C-10%CO2 incubator overnight. On the day of the experiment, the growth media is replaced with the FluxOR™ reagent loading buffer and incubated, protected from light, at ambient temperature (23-25°C) for 90 min. The loading buffer is replaced with assay buffer ± test compound followed by 30 min incubation at ambient temperature, where the Thallium/Potassium stimulant is added to the microplate.
# • 1. Seed HEK-hKir1.1 cells (50 µl at 20,000 cells/well) in 384-well PDL coated Microplates • 2. Allow cells to adhere overnight in humidified 37°C/10%CO2 incubator • 3. Completely remove cell growth media from microplate and replace with 25 µl loading buffer • 4. Incubate Microplate at room temperature, protected form light, for 90 min • 5. Remove loading buffer and replace with 25 µl 1x Assay Buffer ± test compound. • 6. Incubate microplate at room temperature, protected form light, for 30 min • 7. […] Excitation = 400 nm, Emission = 460 & 580 nm. Collect data for ∼ 10 min.
# Data Calculation- The fluorescence intensity of wells containing 3 µM of a standard control ROMK inhibitor of the present invention is used to define the ROMK-sensitive component of thallium flux. Fluorescence in the presence of test compounds is normalized to control values to provide % fluorescence change.
row,Structure (SMILES),pIC50
1,N#Cc1c(F)ccc([C@@H]2CN3CCN(C(=O)Cc4ccc(-n5cnnn5)cn4)C[C@H]3CO2)c1Cl [Example 53],7.22
2,"N#Cc1c(F)ccc([C@@H]2CN3CCN(C(=O)Cc4ccc(-n5cnnn5)cn4)C[C@H]3CO2)c1F [Example 54, 2,6-difluoro-3-[(3R,9aS)-8-{[5-(1H-tetrazol-1-yl)pyridin-2-yl]acetyl}octahydropyrazino[2,1-c][1,4]oxazin-3-yl]benzonitrile]",7.00
3,"COc1cc([C@H]2CN3CCN(C(=O)Cc4ccc(-n5cnnn5)nc4)C[C@H]3CO2)ccc1C#N [Example 56, 2-methoxy-4-[(3S,9aS)-8-{[6-(1H-tetrazol-1-yl)pyridin-3-yl]acetyl}octahydropyrazino[2,1-c][1,4]oxazin-3-yl]benzonitrile]",6.92
4,"COc1c([C@@H]2CN3CCN(C(=O)Cc4ccc(-n5cnnn5)nc4)C[C@H]3CO2)ccc(F)c1C#N [Example 60, 6-fluoro-2-methoxy-3-[(3R,9aS)-8-{[6-(1H-tetrazol-1-vl)pvridin-3-yl]acetyl}octahydropyrazino[2,1-c][1,4]oxazin-3-yl]benzonitrile]",6.85
5,"COc1c([C@@H]2CN3CCN(C(=O)Cc4ccc(-n5cnnn5)cn4)C[C@H]3CO2)ccc(F)c1C#N [Example 62, 6-fluoro-2-methoxy-3-[(3R,9aS)-8-{[5-(1H-tetrazol-1-vl)pvridin-2-yl]acetyl}octahydropyrazino[2,1-c][1,4]oxazin-3-yl]benzonitrile]",6.34
6,"COc1c([C@H]2CN3CCN(C(=O)Cc4ccc(-n5cnnn5)cn4)C[C@H]3CO2)ccc(F)c1C#N [Example 63, 6-fluoro-2-methoxy-3-[(3S,9aS)-8-{[5-(1H-tetrazol-1-vl)pvridin-2-yl]acetyl}octahydropyrazino[2,1-c][1,4]oxazin-3-yl]benzonitrile]",6.74
7,"Cc1c([C@H]2CN3CCN(C(=O)Cc4ccc(-n5cnnn5)nc4)C[C@H]3CO2)ccc(Cl)c1C#N [Example 64, 6-chloro-2-methyl-3-[(3S,9aS)-8-{[6-(1H-tetrazol-1-yl)pyridin-3-yl]acetyl}octahydropyrazino[2,1-c][1,4]oxazin-3-yl]benzonitrile]",6.17
8,Cc1c([C@@H]2CN3CCN(C(=O)Cc4ccc(-n5cnnn5)nc4)C[C@H]3CO2)ccc(Cl)c1C#N [Example 65],6.82
9,"N#Cc1ccc([C@@H]2CN3CCN(C(=O)Cc4ccc(-n5cnnn5)nc4)C[C@H]3CO2)cc1F [Example 66, 2-fluoro-4-[(3R,9aS)-8-{[6-(1H-tetrazol-1-yl)pyridin-3-yl]acetyl}octahydropyrazino[2,1-c][1,4]oxazin-3-yl]benzonitrile]",6.43
10,"N#Cc1ccc([C@H]2CN3CCN(C(=O)Cc4ccc(-n5cnnn5)nc4)C[C@H]3CO2)cc1F [Example 67, 2-fluoro-4-[(3S,9aS)-8-{[6-(1H-tetrazol-1-yl)pyridin-3-yl]acetyl}octahydropyrazino[2,1-c][1,4]oxazin-3-yl]benzonitrile]",7.15
11,"Cc1c([C@@H]2CN3CCN(C(=O)Cc4ccc(-n5cnnn5)nc4)C[C@H]3CO2)csc1C#N [Example 68, 3-methyl-4-[(3R,9aS)-8-{[6-(1H-tetrazol-1-yl)pyridin-3-yl]acetyl}octahydropyrazino[2,1-c][1,4]oxazin-3-yl]thiophene-2-carbonitrile]",7.40
12,"Cc1c([C@H]2CN3CCN(C(=O)Cc4ccc(-n5cnnn5)nc4)C[C@H]3CO2)csc1C#N [Example 69, 3-methyl-4-[(3S,9aS)-8-{[6-(1H-tetrazol-1-yl)pyridin-3-yl]acetyl}octahydropyrazino[2,1-c][1,4]oxazin-3-yl]thiophene-2-carbonitrile]",6.96
13,"Cc1c([C@H]2CN3CCN(C(=O)Cc4ccc(-n5cnnn5)cn4)C[C@H]3CO2)csc1C#N [Example 71, 3-methyl-4-[(3S,9aS)-8-{[5-(1H-tetrazol-1-yl)pyridin-2-yl]acetyl}octahydropyrazino[2,1-c][1,4]oxazin-3-yl]thiophene-2-carbonitrile]",6.41
14,"Cc1cc2c(cc1[C@@H]1CN3CCN(C(=O)Cc4ccc(-n5cnnn5)nc4)C[C@H]3CO1)COC2=O [Example 72, 6-methyl-5-[(3R,9aS)-8-{[6-(1H-tetrazol-1-yl)pyridin-3-yl]acetyl}octahydropyrazino[2,1-c][1,4]oxazin-3-yl]-2-benzofuran-1(3H)-one]",6.12
15,"Cc1cc2c(cc1[C@H]1CN3CCN(C(=O)Cc4ccc(-n5cnnn5)nc4)C[C@H]3CO1)COC2=O [Example 73, 6-methyl-5-[(3S,9aS)-8-{[6-(1H-tetrazol-1-yl)pyridin-3-yl]acetyl}octahydropyrazino[2,1-c][1,4]oxazin-3-yl]-2-benzofuran-1(3H)-one]",6.64
16,"Cc1c(C#N)cncc1[C@@H]1CN2CCN(C(=O)Cc3ccc(-n4cnnn4)nc3)C[C@H]2CO1 [Example 74, 4-methyl-5-[(3R,9aS)-8-{[6-(1H-tetrazol-1-yl)pyridin-3-yl]acetyl}octahydropyrazino[2,1-c][1,4]oxazin-3-yl]pyridine-3-carbonitrile]",6.41
17,"Cc1nc(-n2cnnn2)ccc1CC(=O)N1CCN2C[C@@H](c3ccc(F)c(C#N)c3C)OC[C@@H]2C1 [Example 77, 6-fluoro-2-methyl-3-[(3R,9aS)-8-{[2-methyl-6-(1H-tetrazol-1-vl)pvridin-3-yl]acetyl}octahydropyrazino[2,1-c][1,4]oxazin-3-yl]benzonitrile]",7.00

# Same assay, conditions: Thallium Flux IC50
row,Structure (SMILES),pIC50
1,"O=C1OCCc2cc([C@H]3CN4CCN(C(=O)Cc5ccc(-n6cnnn6)nc5)C[C@@H]4CO3)ccc21 [Example 55, 6-[(3S,9aR)-8-{[6-(1H-tetrazol-1-yl)pyridin-3-yl]acetyl}octahydropyrazino[2,1-c][1,4]oxazin-3-yl]-3,4-dihydro-1H-isochromen-1-one]",6.92
2,"Cc1c([C@@H]2CN3CCN(C(=O)Cc4ccc(-n5cnnn5)cn4)C[C@H]3CO2)csc1C#N [Example 70, 3-methyl-4-[(3R,9aS)-8-{[5-(1H-tetrazol-1-yl)pyridin-2-yl]acetyl}octahydropyrazino[2,1-c][1,4]oxazin-3-yl]thiophene-2-carbonitrile]",6.57
3,"Cc1c([C@@H]2CN3CCN(C(=O)Cc4cnc(-n5cnnn5)cn4)C[C@H]3CO2)ccc(F)c1C#N [Example 75, 6-fluoro-2-methyl-3-[(3R,9aS)-8-{[5-(1H-tetrazol-1-yl)pyrazin-2-yl]acetyl}octahydropyrazino[2,1-c][1,4]oxazin-3-yl]benzonitrile]",6.89
4,"Cc1c([C@H]2CN3CCN(C(=O)Cc4cnc(-n5cnnn5)cn4)C[C@H]3CO2)ccc(F)c1C#N [Example 76, 6-fluoro-2-methyl-3-[(3S,9aS)-8-{[5-(1H-tetrazol-1-yl)pyrazin-2-yl]acetyl}octahydropyrazino[2,1-c][1,4]oxazin-3-yl]benzonitrile]",6.82
